These are literature values, as cited in patent publication US20190216952A1, “Method for substantiating validating products for environmental safety” (priority 2018, published 2019).

The subject of data set [1] is coral. The note with it: Danovaro et al 2008.
For data set [2], the system named is coral. As to conditions: Downs et al.

The structures appear in SMILES notation.

With `Cc1ccc(C=C2C(=O)C3(C)CCC2C3(C)C)cc1` (centres unmarked) [4-Methylbenzylidene Camphor], in data set [1], the coral bleaching/death result is on record as “caused coral bleaching/death”. As for `CCCCOC(=O)c1ccc(O)cc1` [Butylparaben], in data set [1], the coral bleaching/death result was “caused coral bleaching/death”.

Regarding `CCCCC(CC)COC(=O)C=Cc1ccc(OC)cc1` (centres unmarked) [Octinoxate], in data set [1], the coral bleaching/death result was “caused coral bleaching/death”. For `COc1ccc(C(=O)c2ccccc2)c(O)c1` [Oxybenzone], the toxicity in coral result in data set [2] is “toxicity”. In addition, the coral bleaching/death result in data set [1] was “caused coral bleaching/death”.
